Laboratory results published in ChEMBL document CHEMBL1201862, “PubChem BioAssay data set” (2004).
Activity calls are given as the source filed them.

How the values were obtained:
[1] = target: T1, Microphthalmia-associated transcription factor (Homo sapiens, UniProt O75030); experiment: reducers of TRPM1 reporter luminescence, concentration series – cell-based, SK-MEL-5, cherry-picked, set 3, MITF inhibitor project, dose response (AID 493073); format: functional;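 further: SK-MEL-5 melanoma cells with luciferase driven by the MITF target TRPM1 promoter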
T1 sequence (O75030 whole entry): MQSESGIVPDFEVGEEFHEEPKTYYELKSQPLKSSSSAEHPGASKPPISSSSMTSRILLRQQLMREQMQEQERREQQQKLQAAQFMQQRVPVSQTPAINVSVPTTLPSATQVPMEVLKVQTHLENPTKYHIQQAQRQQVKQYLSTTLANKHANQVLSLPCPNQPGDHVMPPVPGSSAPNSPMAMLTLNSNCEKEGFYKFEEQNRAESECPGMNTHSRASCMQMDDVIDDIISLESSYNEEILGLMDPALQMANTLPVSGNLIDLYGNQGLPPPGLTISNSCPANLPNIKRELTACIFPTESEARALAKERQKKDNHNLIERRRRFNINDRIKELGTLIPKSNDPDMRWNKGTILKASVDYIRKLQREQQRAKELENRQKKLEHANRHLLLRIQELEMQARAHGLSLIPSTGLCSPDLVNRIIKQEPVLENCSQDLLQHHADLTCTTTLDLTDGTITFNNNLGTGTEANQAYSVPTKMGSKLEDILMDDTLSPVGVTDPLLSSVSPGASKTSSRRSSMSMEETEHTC

[2] = viability of PTEN-deleted HCT116 cells – cell-based, HCT116 PTEN knockout, dose response (AID 1047); format: functional;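 further: HCT116 colon tumor cells with PTEN knocked out; cells exposed to compound for 60 hours before readout; potency for loss of cell viability measured by luminescence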
cells [3] = format: functional, cell-based
cells [4] = format: functional, cell-based; remark: listed apart in the source
INS1 = experiment: INS-1E survival protection against cytokine death – cell-based, luminescence, retest, dose response (AID 449756); format: functional; conditions: Rattus norvegicus;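 further: cell death triggered by IL-1 beta plus TNF-alpha plus IFN-gamma mixture; protective hits raise ATP signal compared with cytokine alone wells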
[5] = loss of viability in HepG2 cells – cell-based, CellTiter-Glo, cherry-picked, cytotoxicity control for Shn3 inhibitor project, dose response (AID 624134); format: functional
[6] = reduction of Shn3 3'UTR-driven luciferase in osteoblasts – cell-based, Clone20 osteoblasts, firefly luciferase, cherry-picked, dose response (AID 624132); format: functional;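 further: firefly luciferase luminescence from reporter carrying the Shn3 3'UTR in osteoblasts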
Protein Wnt-3a = Protein Wnt-3a (Mus musculus, UniProt P27467); experiment: antagonism of Wnt3a pathway luciferase reporter – Wnt-LIGHT cells, luminescence, selectivity assay for Gli-SUFU antagonist project, dose response (AID 651570); format: functional; conditions: read-out: IC50_Mean;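 further: Wnt-LIGHT reporter cells stimulated with conditioned medium from Wnt3a-producing cells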
[7] = non-specific 3'UTR reporter inhibition in Clone20-Shn3RL – cell-based, Renilla luciferase, cherry-picked, counter-screen for Shn3 inhibitor project, dose response (AID 624133); format: functional
[8] = HEK-293T viability loss after treatment – luminescence, T-cell screen hits, cytotoxicity control for TCR NF-kB inhibitor project, dose response (AID 489026); format: functional, cell-based;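 further: cells exposed to compound about 14 hours before the viability readout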
[9] = target: G-protein coupled receptor 55 (Homo sapiens, UniProt Q9Y2T6); experiment: inhibition of LPI-stimulated GPR55 beta-arrestin translocation – imaging, U2OS, beta-arrestin-GFP, LPI agonist, primary screen (AID 2013); format: functional;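 further: antagonist potency measured as reduced agonist-driven arrestin aggregation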
Protein skinhead-1 = target: T2, Protein skinhead-1 (Caenorhabditis elegans, UniProt P34707); format: functional
T2 sequence (P34707 whole entry): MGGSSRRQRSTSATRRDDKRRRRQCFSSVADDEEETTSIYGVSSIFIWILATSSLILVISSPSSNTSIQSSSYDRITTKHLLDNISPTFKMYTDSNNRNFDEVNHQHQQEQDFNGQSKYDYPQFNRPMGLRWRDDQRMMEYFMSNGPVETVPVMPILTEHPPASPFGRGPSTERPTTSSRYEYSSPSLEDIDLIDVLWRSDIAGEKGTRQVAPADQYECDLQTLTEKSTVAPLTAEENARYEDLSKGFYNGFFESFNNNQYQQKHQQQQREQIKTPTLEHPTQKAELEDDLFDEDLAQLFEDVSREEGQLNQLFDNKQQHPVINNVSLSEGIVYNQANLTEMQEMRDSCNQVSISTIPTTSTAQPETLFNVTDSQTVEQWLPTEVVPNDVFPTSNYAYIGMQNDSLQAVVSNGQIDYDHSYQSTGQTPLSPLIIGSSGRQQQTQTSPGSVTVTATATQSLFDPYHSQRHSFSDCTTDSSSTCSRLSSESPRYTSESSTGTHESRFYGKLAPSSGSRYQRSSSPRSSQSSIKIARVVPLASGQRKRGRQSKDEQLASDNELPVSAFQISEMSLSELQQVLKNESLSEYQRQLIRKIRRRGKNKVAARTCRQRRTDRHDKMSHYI

Beta-galactosidase = Beta-galactosidase (Escherichia coli, UniProt Q8VNN2); experiment: detection-enzyme interference by beta-gal modulators – biochemical, E. coli enzyme, set 3, artefact control for CCR6 antagonist project, dose response (AID 504712); format: functional
[10] = Trypanosoma cruzi growth suppression in host cells – NIH3T3 host cells, beta-gal luminescence, confirmation (AID 2044); format: functional, cell-based;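 further: intracellular parasites grown in NIH/3T3 mouse fibroblasts as host cells; luminescent beta-galactosidase reporter signal from transgenic T. cruzi replicating inside host cells; inhibitors lower the luminescence signal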
[11] = NIH3T3 cell viability loss – ATP luminescence, mouse fibroblasts, counter-screen, dose response (AID 2010); format: functional, cell-based;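 further: cells exposed to compound for about 90 hours before reading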
Phospholipase A2 = Phospholipase A2 (Homo sapiens, UniProt P04054); format: functional;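 further: confirmatory dose-response counterscreen on phospholipase A2, testing hits that came from an ultra-high-throughput screen for ATG4B inhibitors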
[12] = viability of HCT116 lacking mutant beta-catenin – cell-based, human colon tumor, dose response (AID 1045); format: functional;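 further: HCT116 colon tumor cells with beta catenin knocked out; cells exposed to compound for 60 hours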
Cysteine protease ATG4B = target: T3, Cysteine protease ATG4B (Homo sapiens, UniProt Q9Y4P1); format: functional;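 further: Fluorescence-based dose-response confirmation assay measuring inhibition of ATG4B activity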
T3 sequence (Q9Y4P1 whole entry): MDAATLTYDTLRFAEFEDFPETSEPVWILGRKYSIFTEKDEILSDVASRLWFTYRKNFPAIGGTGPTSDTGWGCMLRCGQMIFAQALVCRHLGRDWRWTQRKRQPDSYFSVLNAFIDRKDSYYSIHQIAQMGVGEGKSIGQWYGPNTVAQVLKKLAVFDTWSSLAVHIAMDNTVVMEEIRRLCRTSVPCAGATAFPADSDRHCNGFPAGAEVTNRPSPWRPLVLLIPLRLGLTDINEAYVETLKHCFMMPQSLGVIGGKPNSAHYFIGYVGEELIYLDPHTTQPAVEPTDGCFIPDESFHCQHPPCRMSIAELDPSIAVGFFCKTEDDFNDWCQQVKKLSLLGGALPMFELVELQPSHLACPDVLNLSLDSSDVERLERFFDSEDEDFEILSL

Prothrombin = Prothrombin (Homo sapiens, UniProt P00734); experiment: Thrombin 1536 HTS Dose Response Confirmation. [Related pubchem assays: 1046 (Thrombin 1536 HTS; hits were confirmed in this assay)]; format: functional
Coagulation factor XII = target: T4, Coagulation factor XII (Homo sapiens, UniProt P00748); format: functional;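 further: activated factor XIIa alpha cleaving a fluorogenic AMC peptide substrate; inhibitor potency from loss of enzyme activity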
T4 sequence (P00748 whole entry): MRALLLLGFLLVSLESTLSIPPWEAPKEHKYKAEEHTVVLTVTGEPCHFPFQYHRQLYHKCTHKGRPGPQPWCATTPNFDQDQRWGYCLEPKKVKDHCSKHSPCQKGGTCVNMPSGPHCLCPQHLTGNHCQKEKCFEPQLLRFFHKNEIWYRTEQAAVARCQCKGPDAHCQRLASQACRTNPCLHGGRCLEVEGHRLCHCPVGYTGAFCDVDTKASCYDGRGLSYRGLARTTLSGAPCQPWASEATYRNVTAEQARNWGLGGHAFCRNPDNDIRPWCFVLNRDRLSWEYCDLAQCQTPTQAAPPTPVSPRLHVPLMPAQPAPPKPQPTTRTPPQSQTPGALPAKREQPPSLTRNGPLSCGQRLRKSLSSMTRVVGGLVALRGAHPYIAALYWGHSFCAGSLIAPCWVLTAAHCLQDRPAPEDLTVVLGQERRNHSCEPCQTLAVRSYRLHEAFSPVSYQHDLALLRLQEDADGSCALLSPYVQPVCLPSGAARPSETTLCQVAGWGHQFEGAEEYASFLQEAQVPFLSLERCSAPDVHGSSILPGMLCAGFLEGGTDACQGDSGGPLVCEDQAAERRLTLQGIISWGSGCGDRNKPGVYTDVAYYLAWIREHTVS

[13] = target: NAD-dependent protein deacylase sirtuin-5, mitochondrial (Homo sapiens, UniProt Q9NXA8); experiment: sirtuin-5 deacylation blockers, concentration series – biochemical, fluorescence imaging, cherry-pick, set 5, dose response (AID 720591);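 further: desuccinylation of succinyl peptide AMC substrate read as fluorescence after trypsin release; potency of inhibitors that lower fluorescence and may act on trypsin instead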
NAD-dependent protein deacylase sirtuin-5, mitochondrial, sequence (Q9NXA8 whole entry): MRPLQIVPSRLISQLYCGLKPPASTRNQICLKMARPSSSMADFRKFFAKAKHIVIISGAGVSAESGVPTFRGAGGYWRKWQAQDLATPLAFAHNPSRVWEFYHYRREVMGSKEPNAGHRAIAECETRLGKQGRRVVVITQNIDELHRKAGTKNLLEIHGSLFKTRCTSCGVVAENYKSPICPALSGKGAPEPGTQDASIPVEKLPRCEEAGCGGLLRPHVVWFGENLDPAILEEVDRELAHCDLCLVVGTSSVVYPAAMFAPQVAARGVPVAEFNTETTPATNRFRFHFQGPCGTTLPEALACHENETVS

Protein Wnt-3a, sequence (P27467 whole entry): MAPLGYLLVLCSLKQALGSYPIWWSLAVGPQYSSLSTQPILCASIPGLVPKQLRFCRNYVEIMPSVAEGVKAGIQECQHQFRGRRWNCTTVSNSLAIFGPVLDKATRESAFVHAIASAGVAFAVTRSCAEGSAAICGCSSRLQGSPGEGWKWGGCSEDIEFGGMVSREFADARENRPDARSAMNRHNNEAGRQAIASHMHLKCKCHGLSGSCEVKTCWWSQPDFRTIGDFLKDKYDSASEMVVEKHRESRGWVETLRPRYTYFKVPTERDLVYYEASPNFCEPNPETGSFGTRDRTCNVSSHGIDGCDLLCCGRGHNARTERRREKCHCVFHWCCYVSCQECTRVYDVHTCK
Phospholipase A2, sequence (P04054 whole entry): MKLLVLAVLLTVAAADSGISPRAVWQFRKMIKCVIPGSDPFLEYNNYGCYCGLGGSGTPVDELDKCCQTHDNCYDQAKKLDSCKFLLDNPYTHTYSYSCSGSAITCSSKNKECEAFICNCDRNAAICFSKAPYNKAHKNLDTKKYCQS
Beta-galactosidase, sequence (Q8VNN2 whole entry): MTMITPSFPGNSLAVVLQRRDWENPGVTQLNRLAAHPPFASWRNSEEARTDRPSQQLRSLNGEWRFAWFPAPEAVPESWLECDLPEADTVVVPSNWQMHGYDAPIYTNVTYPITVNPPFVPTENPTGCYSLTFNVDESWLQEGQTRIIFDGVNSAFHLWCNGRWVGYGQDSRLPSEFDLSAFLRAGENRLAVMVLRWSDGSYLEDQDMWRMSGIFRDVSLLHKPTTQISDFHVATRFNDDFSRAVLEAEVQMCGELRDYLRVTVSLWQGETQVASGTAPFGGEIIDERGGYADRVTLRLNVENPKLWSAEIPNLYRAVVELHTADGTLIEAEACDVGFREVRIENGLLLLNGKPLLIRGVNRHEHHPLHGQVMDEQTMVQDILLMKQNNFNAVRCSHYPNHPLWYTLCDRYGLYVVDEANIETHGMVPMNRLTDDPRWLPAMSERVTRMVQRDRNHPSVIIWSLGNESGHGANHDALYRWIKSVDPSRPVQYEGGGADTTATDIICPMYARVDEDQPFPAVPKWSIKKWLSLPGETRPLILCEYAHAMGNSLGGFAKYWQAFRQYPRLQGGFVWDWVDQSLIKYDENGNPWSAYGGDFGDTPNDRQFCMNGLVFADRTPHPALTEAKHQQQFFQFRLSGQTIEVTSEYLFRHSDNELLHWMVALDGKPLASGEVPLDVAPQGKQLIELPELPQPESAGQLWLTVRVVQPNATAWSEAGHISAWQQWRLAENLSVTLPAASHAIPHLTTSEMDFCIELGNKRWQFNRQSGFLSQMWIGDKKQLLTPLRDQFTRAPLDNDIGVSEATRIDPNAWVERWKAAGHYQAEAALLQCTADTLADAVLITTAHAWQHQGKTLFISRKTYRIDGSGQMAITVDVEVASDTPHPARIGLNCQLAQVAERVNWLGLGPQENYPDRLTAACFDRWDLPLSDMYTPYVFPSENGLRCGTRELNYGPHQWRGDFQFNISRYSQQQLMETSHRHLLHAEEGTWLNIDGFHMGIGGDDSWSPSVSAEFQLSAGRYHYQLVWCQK
G-protein coupled receptor 55, sequence (Q9Y2T6 whole entry): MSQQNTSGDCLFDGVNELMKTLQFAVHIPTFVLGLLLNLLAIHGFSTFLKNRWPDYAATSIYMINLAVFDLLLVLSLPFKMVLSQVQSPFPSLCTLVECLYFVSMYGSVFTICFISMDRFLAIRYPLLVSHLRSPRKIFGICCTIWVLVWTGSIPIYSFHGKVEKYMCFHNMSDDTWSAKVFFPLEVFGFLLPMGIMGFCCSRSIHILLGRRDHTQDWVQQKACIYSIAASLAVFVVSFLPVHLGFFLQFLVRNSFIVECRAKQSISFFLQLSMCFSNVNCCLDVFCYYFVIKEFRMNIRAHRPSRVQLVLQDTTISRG

Question: Which AC50 [1] does the source give for `COC(=O)c1ccc(/C=C(\C#N)C(=O)NC(C)c2ccccc2)cc1` (configuration not stated) here?
Answer: Its AC50 is 10.7 µM (active).

Question: And the EC50 [2]?
Answer: Its EC50 is 47.1 µM (active).

Question: Which IC50 (cells [3]) does the source give for `O=C(O)/C=C/C(=O)NCc1csc2ccccc12` here?
Answer: Its IC50 is > 29.9 µM (inactive).

Question: And the EC50 (cells [4])?
Answer: Its EC50 is > 29.9 µM (inactive).

Question: Which results are given for `COc1cccc(CN(C)C(=O)c2cc(COc3ccc4ncccc4c3)on2)c1`?
Answer: AC50 (INS1): 5.13 µM (active); AC50 [5]: 3.93 µM (active); AC50 [6]: 1.49 µM (active); IC50 (Protein Wnt-3a): 1.02 µM (active); AC50 [7]: 2.1 µM (active); IC50 [8]: 59.9 µM (inactive)

Question: With `CC(C)C[C@H](NC(=O)c1[nH]cnc1C(=O)NCc1ccc(CNC(=O)OC(C)(C)C)cc1)C(=O)OCc1ccccc1` as the molecule, how does the IC50 [9] read?
Answer: The IC50 was 2.3 µM (active).

Question: With `O=[N+]([O-])c1ccc(/C=C/C2=NN(c3ccccc3)C(c3ccco3)C2)o1` (configuration not stated) as the molecule, how does the IC50 (Protein skinhead-1) read?
Answer: The IC50 was > 100 µM (inactive).

Question: What about the IC50 (Beta-galactosidase) of the same molecule?
Answer: Its IC50 is 41 µM (inactive).

Question: What about the EC50 [10] of the same molecule?
Answer: Its EC50 is 0.427 µM (active).

Question: What about the EC50 [11] of the same molecule?
Answer: The EC50 was 18.5 µM (active).

Question: For `COc1ccc(C(C)=O)cc1CSc1nc2ccccc2c(=O)n1-c1cccc(C)c1`, which EC50 [2] is on record?
Answer: Its EC50 is 28.9 µM (active).

Question: And the IC50 (Phospholipase A2)?
Answer: Its IC50 is 0.321 µM (active).

Question: And the EC50 [12]?
Answer: Its EC50 is 29.1 µM (active).

Question: And the IC50 (Cysteine protease ATG4B)?
Answer: Its IC50 is 0.502 µM (active).

Question: With `Cc1c(C(C)C)c(=O)n(-c2ccc(S(=O)(=O)NC3CCCCC3)cc2)n1C` as the molecule, how does the AC50 [5] read?
Answer: The AC50 was 3.93 µM (active).

Question: And the AC50 [6]?
Answer: Its AC50 is 1.06 µM (active).

Question: What about the IC50 (Protein Wnt-3a) of the same molecule?
Answer: Its IC50 is 2.91 µM (active).

Question: What about the AC50 [7] of the same molecule?
Answer: Its AC50 is 1.76 µM (active).

Question: For `Cc1cc(C(=O)Nc2nc(C)c(C(=O)N(C)C)s2)ccc1[N+](=O)[O-]`, which IC50 (Prothrombin) is on record?
Answer: The IC50 was > 50 µM (not active).

Question: What about the IC50 (Coagulation factor XII) of the same molecule?
Answer: Its IC50 is > 50 µM (inactive).

Question: Which AC50 [13] does the source give for `Cc1c(-c2ccc(OCCN3CCOCC3)cc2)c(=O)oc2ccc3ccccc3c12` here?
Answer: Its AC50 is > 30 µM (inactive).

Question: Which AC50 [1] does the source give for `CC[n+]1c(C=C2C=CN(C)C=C2)ccc2cc(C)ccc21` here?
Answer: The AC50 was 1.74 µM (active).
